According to ChEMBL document CHEMBL1201862, “PubChem BioAssay data set” (2004):
Activity calls are given as the source filed them.

Key:
[1] = molecular target: T1, Hexokinase HKDC1 (Homo sapiens, UniProt Q2TB90); assay: HKDC1 hexokinase activators, dose response, biochemical, W721R variant (AID 504730); type: functional
T1 sequence (Q2TB90 whole entry): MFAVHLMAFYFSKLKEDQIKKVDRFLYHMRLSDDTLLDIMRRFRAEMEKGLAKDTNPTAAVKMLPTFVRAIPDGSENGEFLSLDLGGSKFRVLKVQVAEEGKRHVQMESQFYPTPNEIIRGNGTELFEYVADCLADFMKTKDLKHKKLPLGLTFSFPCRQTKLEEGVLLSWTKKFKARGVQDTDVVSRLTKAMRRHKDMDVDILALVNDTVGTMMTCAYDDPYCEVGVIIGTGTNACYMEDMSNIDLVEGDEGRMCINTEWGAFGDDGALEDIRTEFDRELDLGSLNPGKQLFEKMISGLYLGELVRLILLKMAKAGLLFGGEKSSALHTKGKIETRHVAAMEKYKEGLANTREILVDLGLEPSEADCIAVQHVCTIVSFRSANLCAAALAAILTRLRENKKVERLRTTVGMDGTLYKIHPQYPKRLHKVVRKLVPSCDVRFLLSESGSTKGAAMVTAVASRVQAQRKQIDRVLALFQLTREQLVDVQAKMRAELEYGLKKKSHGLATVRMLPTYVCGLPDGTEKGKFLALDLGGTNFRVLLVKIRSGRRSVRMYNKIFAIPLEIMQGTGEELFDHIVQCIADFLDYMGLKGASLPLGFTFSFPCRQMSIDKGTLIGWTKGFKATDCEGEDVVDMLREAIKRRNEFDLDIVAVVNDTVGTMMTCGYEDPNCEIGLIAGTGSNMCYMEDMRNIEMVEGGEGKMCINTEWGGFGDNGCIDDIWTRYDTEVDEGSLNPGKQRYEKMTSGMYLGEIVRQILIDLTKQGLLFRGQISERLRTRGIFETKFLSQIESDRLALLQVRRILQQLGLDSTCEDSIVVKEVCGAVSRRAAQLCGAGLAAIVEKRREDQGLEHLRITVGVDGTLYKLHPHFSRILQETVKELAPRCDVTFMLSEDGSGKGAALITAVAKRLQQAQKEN

[2] = molecular target: T2, Hexokinase-1 (Homo sapiens, UniProt P19367); assay: hexokinase 1 activators, dose response, selectivity assay for HKDC1 activator project, biochemical (AID 504762); type: functional
T2 sequence (P19367 whole entry): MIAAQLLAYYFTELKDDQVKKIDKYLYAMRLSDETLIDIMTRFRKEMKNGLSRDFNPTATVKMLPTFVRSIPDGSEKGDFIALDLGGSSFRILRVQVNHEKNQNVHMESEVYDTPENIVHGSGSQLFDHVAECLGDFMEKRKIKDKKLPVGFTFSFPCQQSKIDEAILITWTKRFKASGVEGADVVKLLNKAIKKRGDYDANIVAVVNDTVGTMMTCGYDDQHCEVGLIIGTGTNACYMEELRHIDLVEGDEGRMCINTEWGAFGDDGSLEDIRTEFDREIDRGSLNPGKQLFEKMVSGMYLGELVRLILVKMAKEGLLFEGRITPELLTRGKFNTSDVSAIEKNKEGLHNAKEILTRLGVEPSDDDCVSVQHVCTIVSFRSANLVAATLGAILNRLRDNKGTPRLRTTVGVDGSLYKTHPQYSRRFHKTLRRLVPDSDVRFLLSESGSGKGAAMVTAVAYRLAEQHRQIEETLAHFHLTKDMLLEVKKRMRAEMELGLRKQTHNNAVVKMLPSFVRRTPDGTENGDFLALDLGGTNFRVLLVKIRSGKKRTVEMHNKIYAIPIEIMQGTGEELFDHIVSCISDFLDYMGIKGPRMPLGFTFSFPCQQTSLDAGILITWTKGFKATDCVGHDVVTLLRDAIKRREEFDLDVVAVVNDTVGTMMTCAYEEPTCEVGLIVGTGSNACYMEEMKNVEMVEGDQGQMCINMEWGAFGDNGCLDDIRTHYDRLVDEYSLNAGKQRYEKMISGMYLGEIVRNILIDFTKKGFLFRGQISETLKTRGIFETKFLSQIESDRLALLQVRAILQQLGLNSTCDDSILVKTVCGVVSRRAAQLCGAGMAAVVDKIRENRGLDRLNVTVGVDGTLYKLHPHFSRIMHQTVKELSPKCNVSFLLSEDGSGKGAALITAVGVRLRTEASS

[3] = molecular target: Sphingosine 1-phosphate receptor 4 (Homo sapiens, UniProt O95977); assay: Fluorescence dose response cell-based high throughput screening assay for agonists of the Sphingosine 1-Phosphate Receptor 4 (S1P4). [Related pubchem assays: 1509 (Primary screen.), 1523 (Confirmation screen in triplicates.)]; type: functional
Sphingosine 1-phosphate receptor 4, sequence (O95977 whole entry): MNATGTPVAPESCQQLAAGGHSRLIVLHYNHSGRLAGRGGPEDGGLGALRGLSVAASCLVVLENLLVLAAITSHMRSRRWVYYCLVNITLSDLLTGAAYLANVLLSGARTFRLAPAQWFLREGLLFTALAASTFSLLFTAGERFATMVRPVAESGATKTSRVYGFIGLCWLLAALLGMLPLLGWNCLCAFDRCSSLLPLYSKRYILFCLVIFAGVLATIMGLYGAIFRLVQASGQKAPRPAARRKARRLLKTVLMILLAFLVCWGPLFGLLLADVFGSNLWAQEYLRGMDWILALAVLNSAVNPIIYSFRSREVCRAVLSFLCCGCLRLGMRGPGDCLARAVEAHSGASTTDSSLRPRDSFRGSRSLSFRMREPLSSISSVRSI

[4] = molecular target: Sphingosine 1-phosphate receptor 1 (Homo sapiens, UniProt P21453); assay: Fluorescence-based counterscreen assay for S1P4 agonists: Cell-based dose response high throughput screening assay to identify agonists of the Sphingosine 1-Phosphate Receptor 1 (S1P1). [Related pubchem assays (depositor defined):AID1509, AID1523, AID1801, AID463107, AID463118, AID463119, AID463122, AID463123, AID463129, AID463225, AID504400, AID504460]; type: functional
Sphingosine 1-phosphate receptor 1, sequence (P21453 whole entry): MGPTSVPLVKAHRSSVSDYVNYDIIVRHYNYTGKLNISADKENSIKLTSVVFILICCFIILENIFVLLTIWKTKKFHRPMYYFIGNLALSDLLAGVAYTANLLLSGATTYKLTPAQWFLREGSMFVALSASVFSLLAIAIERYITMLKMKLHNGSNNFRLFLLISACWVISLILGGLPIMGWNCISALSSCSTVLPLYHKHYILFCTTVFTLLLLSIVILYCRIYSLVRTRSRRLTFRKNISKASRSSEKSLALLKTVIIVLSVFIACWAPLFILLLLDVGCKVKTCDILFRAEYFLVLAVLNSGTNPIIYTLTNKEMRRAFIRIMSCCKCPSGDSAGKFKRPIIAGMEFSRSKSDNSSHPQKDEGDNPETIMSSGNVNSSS

[5] = molecular target: T3, Cannabinoid receptor 1 (Homo sapiens, UniProt P21554); assay: SAR analysis of antagonists of the Cannabinoid Receptor 1 using an Image-Based Assay - Set 2. [Related pubchem assays (depositor defined):AID2013, AID2026]; type: functional
T3 sequence (P21554 whole entry): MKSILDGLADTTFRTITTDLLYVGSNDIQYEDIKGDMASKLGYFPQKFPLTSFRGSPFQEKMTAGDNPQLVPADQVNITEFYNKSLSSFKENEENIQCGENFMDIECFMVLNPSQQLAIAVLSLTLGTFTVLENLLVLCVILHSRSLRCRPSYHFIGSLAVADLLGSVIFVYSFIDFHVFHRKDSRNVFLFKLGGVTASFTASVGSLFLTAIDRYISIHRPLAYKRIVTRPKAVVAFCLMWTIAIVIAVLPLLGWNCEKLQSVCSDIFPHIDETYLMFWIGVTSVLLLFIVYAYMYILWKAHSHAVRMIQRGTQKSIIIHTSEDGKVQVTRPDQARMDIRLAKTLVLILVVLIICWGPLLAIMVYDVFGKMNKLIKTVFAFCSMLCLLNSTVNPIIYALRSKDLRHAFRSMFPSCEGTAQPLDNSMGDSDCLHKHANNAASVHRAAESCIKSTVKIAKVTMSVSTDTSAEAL

[6] = molecular target: T4, Replicative DNA helicase DnaB (Mycobacterium tuberculosis, UniProt P9WMR3); assay: DnaB intein splicing inhibitors, dose response, biochemical, cell-free fluorescence (AID 449749); type: functional
T4 sequence (P9WMR3 whole entry): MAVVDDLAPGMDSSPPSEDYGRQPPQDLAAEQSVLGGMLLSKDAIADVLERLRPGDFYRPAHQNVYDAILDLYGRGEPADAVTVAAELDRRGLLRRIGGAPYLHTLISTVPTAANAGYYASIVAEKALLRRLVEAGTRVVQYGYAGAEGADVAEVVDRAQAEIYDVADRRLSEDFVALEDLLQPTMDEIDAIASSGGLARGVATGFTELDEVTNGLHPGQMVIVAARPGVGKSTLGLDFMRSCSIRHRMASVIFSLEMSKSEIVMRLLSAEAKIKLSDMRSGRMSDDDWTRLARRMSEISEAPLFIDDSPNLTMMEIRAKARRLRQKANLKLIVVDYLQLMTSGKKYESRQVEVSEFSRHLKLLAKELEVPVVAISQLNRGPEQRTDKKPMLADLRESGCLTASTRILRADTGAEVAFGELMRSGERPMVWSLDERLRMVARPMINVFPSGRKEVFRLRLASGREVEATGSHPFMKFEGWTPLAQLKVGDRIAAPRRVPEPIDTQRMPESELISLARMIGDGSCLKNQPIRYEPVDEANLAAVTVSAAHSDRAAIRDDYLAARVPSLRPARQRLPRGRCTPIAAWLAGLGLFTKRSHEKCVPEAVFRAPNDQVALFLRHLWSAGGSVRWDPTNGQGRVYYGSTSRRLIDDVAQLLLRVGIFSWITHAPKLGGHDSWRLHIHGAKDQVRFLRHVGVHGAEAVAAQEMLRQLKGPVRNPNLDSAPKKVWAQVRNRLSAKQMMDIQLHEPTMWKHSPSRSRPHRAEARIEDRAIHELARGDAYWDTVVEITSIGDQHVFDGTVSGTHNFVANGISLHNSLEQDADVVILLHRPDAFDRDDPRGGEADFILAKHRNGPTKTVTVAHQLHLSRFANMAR

[7] = molecular target: T5, G-protein coupled receptor 35 (Homo sapiens, UniProt Q9HC97); assay: SAR analysis of Agonists of the GPR35 Receptor using an Image-Based Assay - Set 2. [Related pubchem assays (depositor defined):AID2013, AID2026]; type: functional
T5 sequence (Q9HC97 whole entry): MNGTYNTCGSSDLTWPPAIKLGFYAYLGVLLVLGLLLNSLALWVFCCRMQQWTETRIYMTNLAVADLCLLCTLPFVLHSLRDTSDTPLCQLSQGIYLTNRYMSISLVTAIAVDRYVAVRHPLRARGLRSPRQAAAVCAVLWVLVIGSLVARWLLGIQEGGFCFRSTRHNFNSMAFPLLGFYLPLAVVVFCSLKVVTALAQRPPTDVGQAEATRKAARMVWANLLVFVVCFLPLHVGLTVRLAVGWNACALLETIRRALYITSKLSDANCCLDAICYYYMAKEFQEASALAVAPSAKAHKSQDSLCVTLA

[8] = molecular target: G-protein coupled receptor 55 (Homo sapiens, UniProt Q9Y2T6); assay: GPR55 antagonists blocking LPI-driven arrestin recruitment, primary screen, imaging, U2OS, beta-arrestin-GFP, LPI agonist (AID 2013); type: functional;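 note: antagonist potency measured as reduced agonist-driven arrestin aggregation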
G-protein coupled receptor 55, sequence (Q9Y2T6 whole entry): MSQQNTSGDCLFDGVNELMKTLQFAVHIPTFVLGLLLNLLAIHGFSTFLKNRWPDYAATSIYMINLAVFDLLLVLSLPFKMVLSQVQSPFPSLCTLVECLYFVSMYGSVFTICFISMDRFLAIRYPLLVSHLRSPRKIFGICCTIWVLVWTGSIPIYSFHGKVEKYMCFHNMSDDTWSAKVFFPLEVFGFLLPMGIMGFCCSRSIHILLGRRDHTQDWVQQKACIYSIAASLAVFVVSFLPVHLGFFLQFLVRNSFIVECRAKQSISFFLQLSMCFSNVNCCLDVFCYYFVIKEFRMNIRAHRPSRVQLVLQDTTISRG

[9] = molecular target: T3, Cannabinoid receptor 1; assay: SAR analysis of agonists of the Cannabinoid Receptor 1 using an Image-Based Assay - Set 2. [Related pubchem assays (depositor defined):AID2013, AID2026]; type: functional
[10] = molecular target: T6, Cannabinoid receptor 2 (Homo sapiens, UniProt P34972); assay: SAR analysis of agonists of the Cannabinoid Receptor 2 using an Image-Based Assay. [Related pubchem assays (depositor defined):AID2013, AID2026]; type: functional
T6 sequence (P34972 whole entry): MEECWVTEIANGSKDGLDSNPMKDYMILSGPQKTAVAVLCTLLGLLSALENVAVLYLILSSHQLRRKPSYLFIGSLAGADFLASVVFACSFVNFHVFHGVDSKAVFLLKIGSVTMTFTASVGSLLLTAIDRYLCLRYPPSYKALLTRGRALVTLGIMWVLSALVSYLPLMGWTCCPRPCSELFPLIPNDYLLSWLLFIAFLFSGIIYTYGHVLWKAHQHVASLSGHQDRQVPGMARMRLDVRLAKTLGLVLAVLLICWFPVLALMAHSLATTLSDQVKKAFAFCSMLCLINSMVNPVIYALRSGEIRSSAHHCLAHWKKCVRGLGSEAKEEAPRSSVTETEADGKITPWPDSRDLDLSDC

[11] = molecular target: T7, Protein RecA (Mycobacterium tuberculosis, UniProt P9WHJ3); assay: Fluorescence Cell-Free Homogeneous Dose Retest to Identify Inhibitors of RecA-Intein Splicing Activity. [Related pubchem assays (depositor defined):AID2097, AID2223, AID489010, AID492950]; type: functional
T7 sequence (P9WHJ3 whole entry): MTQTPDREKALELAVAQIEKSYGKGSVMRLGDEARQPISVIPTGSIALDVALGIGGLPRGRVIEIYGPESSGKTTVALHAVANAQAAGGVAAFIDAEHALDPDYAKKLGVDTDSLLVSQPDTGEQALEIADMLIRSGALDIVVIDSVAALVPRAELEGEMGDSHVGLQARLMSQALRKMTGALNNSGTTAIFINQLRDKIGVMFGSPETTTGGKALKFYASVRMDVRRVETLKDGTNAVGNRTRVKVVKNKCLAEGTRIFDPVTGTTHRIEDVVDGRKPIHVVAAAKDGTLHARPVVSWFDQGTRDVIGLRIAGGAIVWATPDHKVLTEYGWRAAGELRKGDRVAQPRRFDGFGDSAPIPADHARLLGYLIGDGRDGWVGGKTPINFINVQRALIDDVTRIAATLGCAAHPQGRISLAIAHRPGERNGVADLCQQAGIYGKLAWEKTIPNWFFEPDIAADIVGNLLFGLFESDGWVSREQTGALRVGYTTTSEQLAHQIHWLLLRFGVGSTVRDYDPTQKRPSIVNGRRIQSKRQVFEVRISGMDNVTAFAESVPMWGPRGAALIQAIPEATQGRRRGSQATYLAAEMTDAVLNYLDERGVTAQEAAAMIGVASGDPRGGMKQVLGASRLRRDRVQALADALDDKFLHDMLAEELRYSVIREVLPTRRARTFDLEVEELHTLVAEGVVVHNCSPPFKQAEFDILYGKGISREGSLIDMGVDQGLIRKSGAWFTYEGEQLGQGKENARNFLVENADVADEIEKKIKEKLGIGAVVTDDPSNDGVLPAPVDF

[12] = molecular target: T5, G-protein coupled receptor 35; assay: SAR analysis of Antagonists of the GPR35 Receptor using an Image-Based Assay - Set 3. [Related pubchem assays (depositor defined):AID2013, AID2026]; type: functional
[13] = molecular target: T6, Cannabinoid receptor 2; assay: SAR analysis of antagonists of the Cannabinoid Receptor 2 using an Image-Based Assay. [Related pubchem assays (depositor defined):AID2013, AID2026]; type: functional
[14] = growth suppression of beta-catenin-knockout colon cells, dose response, cell-based, HCT116, human colon tumor (AID 1045); type: functional;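 note: HCT116 colon tumor cells with beta catenin knocked out; cells exposed to compound for 60 hours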
[15] = growth suppression of PTEN-null colon cells, dose response, cell-based, HCT116 PTEN knockout (AID 1047); type: functional;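 note: HCT116 colon tumor cells with PTEN knocked out; cells exposed to compound for 60 hours before readout; potency for loss of cell viability measured by luminescence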
[16] = system: Streptococcus sp. 'group A'; assay: growth inhibition of control SK(-) GAS strain, dose response, counter-screen for streptokinase expression inhibitor project, luminescence, kanamycin, BacTiterGlo, confirmation (AID 1900); type: functional, organism-based
[17] = molecular target: T8, Streptokinase A (Streptococcus pyogenes serotype M1, UniProt P10520); assay: S. pyogenes streptokinase expression inhibitors, potency, dose response, plasminogen activation absorbance, OD405 (AID 1914); type: functional, Streptococcus pyogenes M1 GAS;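 note: secreted streptokinase activity via plasminogen activation per viability signal from cell pellet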
T8 sequence (P10520 whole entry): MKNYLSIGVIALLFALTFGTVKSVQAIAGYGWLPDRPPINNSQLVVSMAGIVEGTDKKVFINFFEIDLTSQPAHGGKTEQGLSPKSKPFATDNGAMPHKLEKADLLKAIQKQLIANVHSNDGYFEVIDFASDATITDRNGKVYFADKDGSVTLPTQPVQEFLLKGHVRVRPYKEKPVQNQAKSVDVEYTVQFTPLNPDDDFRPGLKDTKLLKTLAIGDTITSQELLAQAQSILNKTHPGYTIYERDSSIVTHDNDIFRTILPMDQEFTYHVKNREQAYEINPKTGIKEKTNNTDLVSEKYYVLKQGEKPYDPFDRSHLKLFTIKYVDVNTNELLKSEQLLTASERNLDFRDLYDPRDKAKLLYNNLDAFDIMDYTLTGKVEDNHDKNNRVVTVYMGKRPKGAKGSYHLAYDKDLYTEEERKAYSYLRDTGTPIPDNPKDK

[18] = system: Streptococcus; assay: Group A Streptococcus viability loss, dose response, counter-screen for streptokinase expression inhibitor project, luminescence, BacTiterGlo (AID 1915); type: functional, organism-based;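 note: potency for reduction of bacterial viability or growth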

## Cn1cnnc1SC1c2cccc3cccc(c23)C1NS(=O)(=O)c1ccccc1 (configuration not stated)
[1]
  EC50: 46.7 µM (inactive)
[2]
  EC50: 24.7 µM (inactive)

## COc1ccc(C2CC(c3cccs3)=NN2c2ccccc2)cc1 (configuration not stated)
[3]
  EC50: 12.3 µM (not active)
[4]
  EC50: 5.45 µM (active)

## O=C(c1ccco1)N1CCN(c2nc(C3CC3)nc3sc4c(c23)CCCC4)CC1
[5]
  IC50: > 32 µM (inactive)
[6]
  AC50: 2.35 µM (active)
[7]
  EC50: > 32 µM (inactive)
[8]
  IC50: 1.74 µM (active)
[9]
  EC50: > 32 µM (inactive)
[10]
  EC50: > 32 µM (inactive)
[11]
  EC50: 29.6 µM (active)
[12]
  IC50: > 32 µM (inactive)
[13]
  IC50: > 32 µM (inactive)

## Fc1ccc(NC2=NN=C(c3cc(F)ccc3F)CS2)cc1
[1]
  EC50: 35.7 µM (inactive)
[14]
  EC50: 20.1 µM (active)
[2]
  EC50: 28.9 µM (inactive)
[15]
  EC50: 18.5 µM (active)

## CC(C)C[C@H](NC(=O)c1[nH]cnc1C(=O)NCc1ccccc1)C(=O)OCc1ccccc1
[3]
  EC50: 14.4 µM (not active)
[16]
  EC50: 3.55 µM (active)
[17]
  EC50: > 150 µM (not active)
[18]
  EC50: 20.5 µM (active)
[4]
  EC50: > 49.8 µM (inactive)
